According to patent publication EP1161417B1, “METHODS AND COMPOSITIONS FOR TREATING LEUKEMIA” (HSC Research and Development Limited Partnership, priority 1999, dated 2000):

Legend:
Jak2 kinase = molecular target: T1, Jak2 kinase (Homo sapiens, UniProt O60674); experiment: in vitro kinase assay on Jak2 immunoprecipitated from G2 cell lysate; format: biochemical; details: scanning autoradiographs of the kinase assays
T1 construct: Jak2 kinase was immunoprecipitated from a 1% Triton-X100 lysate of 10x10^6 G2 cells; endogenous in cells; host or cells: G2 pre-B leukemia cell line
Description: Compounds chosen on the basis of their ability to inhibit the growth (colony formation) of the pre-B leukemia cell line G2 were tested for inhibition of Jak2 kinase.
Jak2 kinase was immunoprecipitated from a 1% Triton-X100 lysate of 10x10^6 G2 cells. An in vitro kinase assay was performed on the immunoprecipitated Jak2 in the presence or absence of varying concentrations of the compounds AG 1977, AG 1978, AG 2009 and AG 2010.
Stock solutions of 100mM tyrphostin were made in 100% DMSO and further dilutions made in 10% DMSO. Control kinase assays carried out in the presence of DMSO concentrations of 5-30% alone were unaffected by its presence.
Initial experiments were done with tyrphostin concentrations of 0.1, 1.0 and 10µM. These concentrations had no affect on the kinase activity of Jak2. […]

G2 ALL cells = experiment: clonogenic assay, inhibition of colony formation of ALL cell line G2; format: cell-based, human
Description: Inhibition of colony formation was studied by methods described previously (Kamel-Reid et al., (1992), Leukemia, v. 6, pp. 8-17; Meydan et al., (1996), Nature, v. 379, pp. 645-648).
ALL cell lines A1 (at 8x10^5 cells/ml), C1 (at 4x10^4 cells/ml) and G2 (at 1.15x10^6 cells/ml) were plated in 1 ml volumes, in the absence of exogenous growth factors, into 35 mm petri dishes (Nunc, Gibco) containing alpha MEM (Gibco) plus 10% FCS (Cansera Rexdale, Ont.) in 0.9% (vol/vol) methylcellulose (Fluka, Switzerland). Cultures were set up at 37°C with 5% CO2 in a humidified atmosphere and 10 uM of a selected tyrphostin was added. Colonies consisting of more than 20 cells were counted at 12 days (A1), 5 days (C1) and 14 days (G2) using an inverted microscope. Similar results were obtained with A1 and C1.
Various concentrations of tyrphostins were tested for inhibition of ALL cells in the clonogenic assay described in Example 2. Compounds AG 1977. 1978, 2007, 2008, 2009 and 2010 were tested against ALL cell lines A1, C1 and G2 in doses ranging from nanomolar to micromolar values.

normal bone marrow cells = experiment: modified CFU-GEMM clonogenic assay on normal bone marrow cells; format: cell-based, human; details: 40µM
Description: Compounds showing inhibition of ALL colony formation were examined for their effect on normal bone marrow cells using a modified CFU-GEMM clonogenic assay.
The assay was performed according to Fauser and Messner (1978), Blood, v. 52, pp. 1243-8, and Messner and Fausser (1980), Blut, v. 41, pp. 327-333, with some variations. In brief, heparinized bone marrow cells were layered over Percoll (Pharmacia Fine Chemical. Piscataway N.J.) at a density of 1.077 gm/ml and centrifuged at 400 g at 4°C for 10 min. to remove neutrophils and RBCs. The fractionated bone marrow cells at 2x10^5 cells/ml were cultured in IMDM (OCI, Toronto) containing 0.9% (vol/vol) methylcellulose supplemented with 30% FCS (Cansera Rexdale, Ont.) or normal human plasma, a cocktail of cytokines consisting of G-CSF (10 ng/ml. Amgen), IL-3 (40 U/ml, Immunex), MGF (50 ng/ml, Immunex), Erythropoietin (2u/ml, Epprex) or TPO (10 ng/ml, Amgen) and 5x10^-5 2-mercaptoethanol. The culture mixture was plated in 1 ml volumes into 35 mm petri dishes and incubated at 37°C with 5% CO2 in a humidified atmosphere with concentrations of tyrphostin up to 40 µm.

T1 sequence (O60674 whole entry): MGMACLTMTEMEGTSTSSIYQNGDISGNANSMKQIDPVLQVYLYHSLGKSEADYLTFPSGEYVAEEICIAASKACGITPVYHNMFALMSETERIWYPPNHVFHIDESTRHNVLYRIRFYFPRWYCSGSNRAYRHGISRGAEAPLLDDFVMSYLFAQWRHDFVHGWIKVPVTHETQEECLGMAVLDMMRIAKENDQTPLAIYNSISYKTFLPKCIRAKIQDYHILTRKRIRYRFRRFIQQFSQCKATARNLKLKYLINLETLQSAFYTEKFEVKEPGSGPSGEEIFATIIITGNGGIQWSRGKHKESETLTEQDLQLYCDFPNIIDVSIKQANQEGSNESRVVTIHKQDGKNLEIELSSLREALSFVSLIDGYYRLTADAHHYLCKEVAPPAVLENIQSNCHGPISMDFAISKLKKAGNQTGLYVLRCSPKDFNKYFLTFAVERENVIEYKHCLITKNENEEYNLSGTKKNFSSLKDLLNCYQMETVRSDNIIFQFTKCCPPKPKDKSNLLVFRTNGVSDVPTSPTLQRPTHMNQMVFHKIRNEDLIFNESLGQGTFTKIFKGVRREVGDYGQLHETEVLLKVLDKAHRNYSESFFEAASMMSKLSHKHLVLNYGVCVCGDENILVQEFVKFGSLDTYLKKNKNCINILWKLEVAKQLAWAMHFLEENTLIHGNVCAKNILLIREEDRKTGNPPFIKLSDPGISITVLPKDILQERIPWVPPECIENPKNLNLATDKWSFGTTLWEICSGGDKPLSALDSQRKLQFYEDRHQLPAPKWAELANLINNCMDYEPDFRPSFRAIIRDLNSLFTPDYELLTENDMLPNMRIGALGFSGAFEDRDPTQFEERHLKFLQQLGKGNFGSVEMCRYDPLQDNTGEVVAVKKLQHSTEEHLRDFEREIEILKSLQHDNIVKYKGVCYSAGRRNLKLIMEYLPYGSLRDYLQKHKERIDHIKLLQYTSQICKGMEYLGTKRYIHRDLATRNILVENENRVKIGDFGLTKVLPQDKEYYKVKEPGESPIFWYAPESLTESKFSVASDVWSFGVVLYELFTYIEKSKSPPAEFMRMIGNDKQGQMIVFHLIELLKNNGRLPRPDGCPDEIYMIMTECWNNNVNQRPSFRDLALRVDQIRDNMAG

Structure (SMILES) | %inhibition of kinase activity (Jak2 kinase; 5µM tyrphostin) [%] | %inhibition of kinase activity (Jak2 kinase; 25µM tyrphostin) [%] | %inhibition of kinase activity (Jak2 kinase; 50µM tyrphostin) [%] | inhibition at 0.016 µM (G2 ALL cells; Homo sapiens, dose of 16nM, G2 cells) [%] | clonogenic inhibition (G2 ALL cells; against G2 cells, dose responsive (Fig. 13), compared with AG 1977, 1978, 2007, 2008, 2010) | differential therapeutic index (G2 ALL cells; survival curve of normal BM and G2 colonies (Fig. 14)) | inhibition of normal bone marrow colonies (normal bone marrow cells)
N#C/C(=C\c1cc(O)c(O)c(CSCc2ccccc2)c1)C(=O)NCc1ccccc1 [AG 1977, N-benzyl-2-cyano-3-(3',4'-dihydroxy-5'-methylenethiobenzylphenyl) acrylamide] | 23 | 14 | 15 | – | – | – | –
N#C/C(=C\c1cc(O)c(O)c(CSc2ccccc2)c1)C(=O)NCc1ccccc1 [AG 1978, N-benzyl-2-cyano-3-(3',4-dihydroxy-5'-methylenethiophenylphenyl) acrylamide] | 10 | 13 | 46 | – | – | – | –
N#C/C(=C\c1cc(O)c(O)c(CSCCc2ccccc2)c1)C(=O)NCc1ccccc1 [AG 2009, N-benzyl-2-cyano-3-(3',4'-dihydroxy-5'-(methylenethioethylphenyl)phenyl) acrylamide] | 0 | 0 | 8 | > 50 | most potent clonogenic inhibition | greater than 2 logs | –
N#C/C(=C\c1cc(O)c(O)c(CSCCCc2ccccc2)c1)C(=O)NCc1ccccc1 [AG 2010, N-benzyl-2-cyano-3-(3',4'-dihydroxy-5'-(methylenethiopropylphenyl)phenyl) acrylamide] | 5 | 5 | 39 | – | – | – | significant inhibition
